Test results: the NIST ThermoML archive (doi:10.1021/je0601513)
Numbers after ± are expanded uncertainties.

Legend:
[1] = refractive index (Na D-line) (dimensionless); settings: 101.33 kPa, Liquid, Standard Abbe refractometry
[2] = molar heat capacity at constant pressure; settings: 101.33 kPa, Liquid, Small sample (50 mg) DSC
[3] = 101.33 kPa, Liquid; for viscosity: Capillary tube (Ostwald / Ubbelohde) method

| refractive index ([1]; 288.15 K) | refractive index ([1]; 298.15 K) | refractive index ([1]; 308.15 K) | molar heat capacity at constant pressure ([2]; 288.15 K) | molar heat capacity at constant pressure ([2]; 298.15 K) | molar heat capacity at constant pressure ([2]; 308.15 K) | mass density ([3]; 288.15 K) | viscosity ([3]; 288.15 K) | mass density ([3]; 298.15 K) | viscosity ([3]; 298.15 K) | mass density ([3]; 308.15 K) | viscosity ([3]; 308.15 K) | molar heat capacity at constant pressure ([2]; 293.15 K) | molar heat capacity at constant pressure ([2]; 303.15 K) | molar heat capacity at constant pressure ([2]; 313.15 K) | molar heat capacity at constant pressure ([2]; 318.15 K) | molar heat capacity at constant pressure ([2]; 323.15 K) | molar heat capacity at constant pressure ([2]; 328.15 K) | molar heat capacity at constant pressure ([2]; 333.15 K) | Compound |
| --- | --- | --- | --- | --- | --- | --- | --- | --- | --- | --- | --- | --- | --- | --- | --- | --- | --- | --- | --- |
| 1.4835 ± 0.0007 | 1.4778 ± 0.0006 | 1.473 ± 0.0006 | 146.8 ± 2.3 J/K/mol | 152.4 ± 2.4 J/K/mol | 154.6 ± 2.4 J/K/mol | 1105.39 ± 0.47 kg/m3 | 2.473 ± 0.029 mPa·s | 1095.36 ± 0.45 kg/m3 | 1.989 ± 0.023 mPa·s | 1085.31 ± 0.43 kg/m3 | 1.644 ± 0.019 mPa·s | – | – | – | – | – | – | – | C[S+](C)[O-] [dimethyl sulfoxide] |
| 1.3893 ± 0.0007 | 1.3837 ± 0.0006 | 1.3795 ± 0.0005 | 139 ± 2 J/K/mol | 144.9 ± 2.2 J/K/mol | 151 ± 2.3 J/K/mol | 807.51 ± 0.28 kg/m3 | 2.498 ± 0.028 mPa·s | 799.54 ± 0.29 kg/m3 | 1.952 ± 0.022 mPa·s | 791.41 ± 0.3 kg/m3 | 1.564 ± 0.018 mPa·s | 142.3 ± 2.2 J/K/mol | 148.2 ± 2.3 J/K/mol | 153.7 ± 2.4 J/K/mol | 157.1 ± 2.4 J/K/mol | 160.1 ± 2.5 J/K/mol | 164.5 ± 2.6 J/K/mol | 167.8 ± 2.6 J/K/mol | CCCO [propan-1-ol] |
